Assay: xn = mol fraction of the nth substance listed
Details: 102 kPa, Liquid; for viscosity: Concentric cylinders viscometry; for speed of sound: Frequency=3 MHz, Single path-length method; for mass density: Vibrating tube method

CCCCCCCC1CCCCC1 [heptylcyclohexane] + CCCCCCCCCCCCCCCC
Details	mass density [kg/m3]	speed of sound [m/s]	viscosity [mPa·s]
293.15 K, x1 = 0.1997	779.33	1358.9	3.34
293.15 K, x1 = 0.4002	785.92	1362	3.2
293.15 K, x1 = 0.5001	789.55	1363.4	3.13
293.15 K, x1 = 0.6006	793.34	1365.3	3.05
293.15 K, x1 = 0.7998	801.63	1368.8	2.92
293.15 K, x1 = 1	810.99	1374.4	2.8
303.15 K, x1 = 0.1997	772.4	1321.7	2.66
303.15 K, x1 = 0.4002	778.99	1324.4	2.56
303.15 K, x1 = 0.5001	782.6	1326.1	2.51
303.15 K, x1 = 0.6006	786.39	1327.5	2.45
303.15 K, x1 = 0.7998	794.64	1331.3	2.35
303.15 K, x1 = 1	803.96	1336.1	2.26
313.15 K, x1 = 0.1997	765.47	1285.1	2.17
313.15 K, x1 = 0.4002	772.06	1287.5	2.08
313.15 K, x1 = 0.5001	775.66	1289.4	2.05
313.15 K, x1 = 0.6006	779.44	1290.6	2.01
313.15 K, x1 = 0.7998	787.98	1294.3	1.93
313.15 K, x1 = 1	796.93	1298.7	1.86
323.15 K, x1 = 0.1997	758.54	1249.3	1.8
323.15 K, x1 = 0.4002	765.13	1251.5	1.73
323.15 K, x1 = 0.5001	768.71	1253.4	1.71
323.15 K, x1 = 0.6006	772.48	1254.5	1.67
323.15 K, x1 = 0.7998	780.65	1258.1	1.61
323.15 K, x1 = 1	789.89	1262.1	1.56
333.15 K, x1 = 0.1997	751.62	1214.4	1.52
333.15 K, x1 = 0.4002	758.19	1216.7	1.46
333.15 K, x1 = 0.5001	761.75	1218.2	1.45
333.15 K, x1 = 0.6006	765.51	1219.4	1.42
333.15 K, x1 = 0.7998	773.64	1222.8	1.37
333.15 K, x1 = 1	782.83	1226.5	1.33
343.15 K, x1 = 0.1997	744.7	–	1.31
343.15 K, x1 = 0.4002	751.3	–	1.25
343.15 K, x1 = 0.5001	754.8	–	1.25
343.15 K, x1 = 0.6006	758.6	–	1.22
343.15 K, x1 = 0.7998	766.7	–	1.18
343.15 K, x1 = 1	775.8	–	1.15
353.15 K, x1 = 0.1997	737.7	–	1.12
353.15 K, x1 = 0.4002	744.3	–	1.09
353.15 K, x1 = 0.5001	747.8	–	1.07
353.15 K, x1 = 0.6006	751.6	–	1.06
353.15 K, x1 = 0.7998	759.6	–	1.03
353.15 K, x1 = 1	768.7	–	0.993
363.15 K, x1 = 0.1997	730.8	–	1
363.15 K, x1 = 0.4002	737.8	–	0.954
363.15 K, x1 = 0.5001	740.7	–	0.962
363.15 K, x1 = 0.6006	744.5	–	0.932
363.15 K, x1 = 0.7998	752.6	–	0.903
363.15 K, x1 = 1	761.6	–	0.892
373.15 K, x1 = 0.1997	723.7	–	0.866
373.15 K, x1 = 0.4002	730.3	–	0.845
373.15 K, x1 = 0.5001	733.7	–	0.834
373.15 K, x1 = 0.6006	737.5	–	0.827
373.15 K, x1 = 0.7998	745.4	–	0.803
373.15 K, x1 = 1	754.4	–	0.776

CCCCCC1CCCCC1 [pentylcyclohexane] + CCCCCCCCCCCCCCCC
Details	mass density [kg/m3]	speed of sound [m/s]	viscosity [mPa·s]
293.15 K, x1 = 0.2004	777.53	1354.6	3.1
293.15 K, x1 = 0.4	782.39	1351.9	2.74
293.15 K, x1 = 0.4999	785.18	1350.6	2.56
293.15 K, x1 = 0.5999	788.23	1349.4	2.38
293.15 K, x1 = 0.8006	795.35	1347.2	2.03
293.15 K, x1 = 1	804.11	1345.9	1.7
303.15 K, x1 = 0.2004	770.57	1317.2	2.49
303.15 K, x1 = 0.4	775.39	1314.4	2.22
303.15 K, x1 = 0.4999	778.15	1313	2.08
303.15 K, x1 = 0.5999	781.16	1311.6	1.95
303.15 K, x1 = 0.8006	788.18	1309	1.68
303.15 K, x1 = 1	796.8	1306.4	1.42
313.15 K, x1 = 0.2004	763.62	1280.5	2.04
313.15 K, x1 = 0.4	768.39	1277.6	1.83
313.15 K, x1 = 0.4999	771.11	1276	1.73
313.15 K, x1 = 0.5999	774.09	1274.5	1.61
313.15 K, x1 = 0.8006	781	1271.3	1.41
313.15 K, x1 = 1	789.47	1267.8	1.21
323.15 K, x1 = 0.2004	756.66	1244.5	1.7
323.15 K, x1 = 0.4	761.38	1241.4	1.54
323.15 K, x1 = 0.4999	764.07	1239.7	1.46
323.15 K, x1 = 0.5999	766.99	1237.9	1.37
323.15 K, x1 = 0.8006	773.8	1234.3	1.21
323.15 K, x1 = 1	782.12	1230.1	1.04
333.15 K, x1 = 0.2004	749.7	1209.3	1.44
333.15 K, x1 = 0.4	754.35	1206	1.31
333.15 K, x1 = 0.4999	757	1204.2	1.24
333.15 K, x1 = 0.5999	759.88	1202.3	1.18
333.15 K, x1 = 0.8006	766.57	1198	1.03
333.15 K, x1 = 1	774.74	1193.4	0.895
343.15 K, x1 = 0.2004	742.8	–	1.24
343.15 K, x1 = 0.4	747.4	–	1.14
343.15 K, x1 = 0.4999	749.9	–	1.08
343.15 K, x1 = 0.5999	752.9	–	1.03
343.15 K, x1 = 0.8006	759.4	–	0.916
343.15 K, x1 = 1	767.3	–	0.799
353.15 K, x1 = 0.2004	735.8	–	1.07
353.15 K, x1 = 0.4	740.3	–	0.985
353.15 K, x1 = 0.4999	742.8	–	0.937
353.15 K, x1 = 0.5999	745.7	–	0.903
353.15 K, x1 = 0.8006	752.2	–	0.809
353.15 K, x1 = 1	759.9	–	0.709
363.15 K, x1 = 0.2004	728.7	–	0.955
363.15 K, x1 = 0.4	733.2	–	0.884
363.15 K, x1 = 0.4999	735.6	–	0.843
363.15 K, x1 = 0.5999	738.5	–	0.805
363.15 K, x1 = 0.8006	744.8	–	0.724
363.15 K, x1 = 1	752.4	–	0.637

— the NIST ThermoML archive (doi:10.1021/acs.jced.8b00692)
